Test results: paper PMC5462828 (Scientific Reports, 2017)
Read-outs that look alike come from different tables or passages of the source.

What was measured:
RXFP1 and Gαs = system: T1, RXFP1 and Gαs; test: Real-time kinetic BRET, RXFP1-Rluc8 / Gαs; type: cell-based, human; details: HEK293T co-expressing RXFP1-Rluc8, Gγ2-Venus, Gβ1, Gαs; H2 relaxin 100 nM, ML290 100 nM or 10 μM
T1 construct: forward primer encodes M-D-S-K-G-S-S, not the native RXFP1 start (N); expressed in transfected cells; host or cells: HEK293T cells stably expressing RXFP1-Rluc8, transiently co-transfected with the G protein subunits
Protocol: HEK293 cell were seeded in 6-well plates at a density of 600,000 cells per well and transfected with constructs encoding the tagged receptors and signalling proteins. 24 h later cells were harvested in HEPES-buffered phenol red-free medium containing 5% FBS and plated out in a white 96-well plate (Nunc) that was incubated at 37 °C under 5% CO2. BRET assays were performed 48 h after transfection as described previously, [52]. Medium was replaced with phenol-red-free-DMEM supplemented with 5% FBS plus 5 μM coelenterazine h. BRET measurements were made at 37 °C using the PHERAstar Omega plate reader with Omega software (BMG LABTECH, Germany). Filtered light emissions were simultaneously measured in each of the “donor wavelength window” (475 ± 15 nm for Rluc8 with coelenterazine h) and “acceptor wavelength window” (535 ± 15 nm for Venus). Cells were assayed before and after treatment with ligands or 5% FBS phenol-red-free-DMEM medium containing 0.01% w/v BSA (vehicle). The BRET signal was calculated as previously described.

RXFP1 [1] = test: ERK1/2 phosphorylation (Surefire) in human primary vascular cells and cardiac fibroblasts; type: cell-based; details: HUAEC
Protocol: p-ERK1/2, p-p38MAPK and p-JNK1/2 was measured using the Surefire ERK, p38 and JNK kits (TGR BioSciences, Australia) as described previously, [16]. Briefly, HEK-RXFP1 cells were plated into 96-well plates (5 × 10^4 cells/well) and primary cells grown in 24-well plates (1 × 10^5 cells/well) overnight to achieve a confluent monolayer. Prior to stimulation, HEK293 cells were serum-starved with DMEM containing 0.5% (v/v) FBS and primary cells in M199 medium for 4–6 hours. […] Levels of p-ERK1/2, p-p38MAPK and p-JNK1/2/3 were detected as per manufacturer’s instructions (Perkin-Elmer, Australia).

[2] = system: ML290-mediated cGMP accumulation; test: Effect of signalling pathway inhibitors on ML290-mediated cGMP accumulation in human primary vascular cells; type: cell-based; details: for Emax: Homo sapiens, read-out: ML290-mediated cGMP accumulation (maximum response), ML290 alone
Protocol: cAMP and cGMP accumulation was determined as previously described, [16]. Briefly, HEK293 cells were plated in 96-well plates (5 × 10^4 cells/well) and human primary cells were plated into 24-well plates (1 × 10^5 cells/well) and grown overnight to achieve a confluent monolayer. Prior to stimulation, HEK cells were serum-starved in DMEM containing 0.5% FBS v/v and primary cells were serum-starved in M199 medium for 4–6 hours. […] Levels of cAMP and cGMP were detected according to the manufacturer’s instructions (Perkin-Elmer, Australia).

[3] = set-up: method as in PMID 23764525; details: cited from earlier work
RXFP2 = details: cited from earlier work
RXFP3 = system: RXFP3; set-up: method as in PMID 23764525; details: cited from earlier work
AVPR1B = system: AVPR1B; set-up: method as in PMID 23764525; details: cited from earlier work
[4] = set-up: method as in PMID 23764525; details: cited from earlier work; remark: listed apart in the source
THP-1 cells = system: THP-1 cells; set-up: method as in PMID 23764525; details: cited from earlier work
pig RXFP1 = system: pig RXFP1; set-up: method as in PMID 26866459; details: cited from earlier work
mouse RXFP1 = details: cited from earlier work
LDLa mutant receptors = details: cited from earlier work
RXFP1 [5] = target: T2, RXFP1 (Homo sapiens, UniProt Q9HBX9); test: 125I-H2 relaxin radioligand binding in HEK-RXFP1 cells; set-up: expressed in transfected cells; host or cells: HEK293T / HEK293 cells stably expressing RXFP1 (HEK-RXFP1)
T2 sequence (Q9HBX9 1-757): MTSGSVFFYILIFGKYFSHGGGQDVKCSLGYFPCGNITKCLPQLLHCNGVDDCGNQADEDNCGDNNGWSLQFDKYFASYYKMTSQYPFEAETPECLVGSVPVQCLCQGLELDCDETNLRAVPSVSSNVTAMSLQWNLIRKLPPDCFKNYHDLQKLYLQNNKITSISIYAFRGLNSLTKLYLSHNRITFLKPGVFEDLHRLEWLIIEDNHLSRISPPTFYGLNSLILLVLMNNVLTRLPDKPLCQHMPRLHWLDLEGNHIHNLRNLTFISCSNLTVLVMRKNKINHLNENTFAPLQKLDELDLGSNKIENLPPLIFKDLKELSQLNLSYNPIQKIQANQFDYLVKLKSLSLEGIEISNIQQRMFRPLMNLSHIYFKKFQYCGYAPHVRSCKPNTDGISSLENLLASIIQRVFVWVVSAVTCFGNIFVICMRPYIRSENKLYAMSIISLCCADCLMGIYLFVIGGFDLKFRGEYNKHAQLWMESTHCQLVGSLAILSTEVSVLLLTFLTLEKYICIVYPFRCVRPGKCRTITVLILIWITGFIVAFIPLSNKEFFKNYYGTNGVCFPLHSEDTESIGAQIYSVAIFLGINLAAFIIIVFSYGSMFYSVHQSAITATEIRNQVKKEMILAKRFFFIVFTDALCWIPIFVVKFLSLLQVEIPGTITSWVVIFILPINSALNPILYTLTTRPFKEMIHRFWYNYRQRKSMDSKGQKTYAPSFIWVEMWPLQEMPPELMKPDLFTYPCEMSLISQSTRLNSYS
Protocol: Competition radioligand binding studies were performed in HEK-RXFP1 cells as described previously. […] After 90 min incubation at room temperature, the reaction was terminated with the removal of medium and washing with cold PBS. Cells were digested with 0.1 M NaOH and radioactivity counted on the γ-counter.

## CC(C)Oc1ccccc1C(=O)Nc1ccccc1C(=O)Nc1cccc(S(=O)(=O)C(F)(F)F)c1 [ML290, 2-Isopropoxy-N-(2-(3-(trifluoromethylsulfonyl)phenylcarbamoyl)phenyl) benzamide]
RXFP1 and Gαs
  ligand-induced BRET, RXFP1 - Gαs interaction: promoted interactions
RXFP1 [1]
  ERK1/2 phosphorylation: did not cause ERK1/2 phosphorylation
[2]; HUASMCs, control of NF449 and mSIRK experiments
  ML290-mediated cGMP accumulation, ML290 alone: 41.9 ± 4.8%
[2]; HUASMCs, control of gallein and Wortmannin experiments
  ML290-mediated cGMP accumulation, ML290 alone: 32.1 ± 4.2%
[2]; HUVSMCs, control of NF449 and mSIRK experiments
  ML290-mediated cGMP accumulation, ML290 alone: 31.4 ± 4.8%
[2]; HUVSMCs, control of gallein and Wortmannin experiments
  ML290-mediated cGMP accumulation, ML290 alone: 30.4 ± 3.2%
[2]; HUVEC
  Emax: 39.5 ± 4.8%
[2]
  Emax: 41 ± 4.5%
[3]; heart
  T1/2 in heart: 7.48 h
  tissue distribution: concentrated in the heart
[3]; mice
  plasma half-life: 8.56 h
  toxicity: without obvious toxicity
[3]; plasma
  T1/2 in plasma: 8.56 h
RXFP2
  action at RXFP2: little or no action
RXFP3
  action at RXFP3: little or no action
AVPR1B
  action at AVPR1B: little or no action
[4]
  cytotoxicity: little cytotoxicity
THP-1 cells
  VEGF expression: increased VEGF expression
Pig RXFP1
  agonist action at pig RXFP1: activates
Mouse RXFP1
  action at mouse RXFP1: antagonist actions
  agonist action at the mouse orthologue of RXFP1: no agonist actions
LDLa mutant receptors
  cAMP production with LDLa mutant receptors: still activates cAMP production
RXFP1 [5]; 125I-H2 relaxin 100pM, increased from 102.7 ± […]
  125I-H2 relaxin specific binding to RXFP1 in presence of ML290: 135.2 ± 6.5%
RXFP1 [5]; ML290 1 μM
  effect on the affinity of H2 relaxin: no significant effect
